According to ChEMBL document CHEMBL4507264, “Data for DCP probe BAY-7598” (2021):

Columns and labels:
[1] = system: Epidermal growth factor receptor (Homo sapiens), P00533 [L858R,T790M]; settings: Compound concentration 1000.0 nM
[2] = biological target: Serine/threonine-protein kinase STK11 (Homo sapiens) (UniProt Q15831); settings: Compound concentration 1000.0 nM
[3] = biological target: Serine/threonine-protein kinase D2 (Homo sapiens) (UniProt Q9BZL6); settings: Compound concentration 1000.0 nM
[4] = biological target: Aurora kinase C (Homo sapiens) (UniProt Q9UQB9); settings: Compound concentration 1000.0 nM
[5] = biological target: Mitogen-activated protein kinase 14 (Homo sapiens) (UniProt Q16539); settings: Compound concentration 1000.0 nM
[6] = biological target: Angiopoietin-1 receptor (Homo sapiens) (UniProt Q02763); settings: Compound concentration 1000.0 nM
[7] = biological target: Serine/threonine-protein kinase BRSK1 (Homo sapiens) (UniProt Q8TDC3); settings: Compound concentration 1000.0 nM
[8] = biological target: Tyrosine-protein kinase receptor TYRO3 (Homo sapiens) (UniProt Q06418); settings: Compound concentration 1000.0 nM
[9] = biological target: Rho-associated protein kinase 2 (Homo sapiens) (UniProt O75116); settings: Compound concentration 1000.0 nM
[10] = biological target: Tyrosine-protein kinase TXK (Homo sapiens) (UniProt P42681); settings: Compound concentration 1000.0 nM
[11] = system: Phosphatidylinositol 4,5-bisphosphate 3-kinase catalytic subunit alpha isoform (Homo sapiens), P42336 [E545A]; settings: Compound concentration 1000.0 nM
Sequence of Phosphatidylinositol 4,5-bisphosphate 3-kinase catalytic subunit alpha isoform (Homo sapiens), P42336 [E545A] (P42336 whole entry E545A, canonical isoform): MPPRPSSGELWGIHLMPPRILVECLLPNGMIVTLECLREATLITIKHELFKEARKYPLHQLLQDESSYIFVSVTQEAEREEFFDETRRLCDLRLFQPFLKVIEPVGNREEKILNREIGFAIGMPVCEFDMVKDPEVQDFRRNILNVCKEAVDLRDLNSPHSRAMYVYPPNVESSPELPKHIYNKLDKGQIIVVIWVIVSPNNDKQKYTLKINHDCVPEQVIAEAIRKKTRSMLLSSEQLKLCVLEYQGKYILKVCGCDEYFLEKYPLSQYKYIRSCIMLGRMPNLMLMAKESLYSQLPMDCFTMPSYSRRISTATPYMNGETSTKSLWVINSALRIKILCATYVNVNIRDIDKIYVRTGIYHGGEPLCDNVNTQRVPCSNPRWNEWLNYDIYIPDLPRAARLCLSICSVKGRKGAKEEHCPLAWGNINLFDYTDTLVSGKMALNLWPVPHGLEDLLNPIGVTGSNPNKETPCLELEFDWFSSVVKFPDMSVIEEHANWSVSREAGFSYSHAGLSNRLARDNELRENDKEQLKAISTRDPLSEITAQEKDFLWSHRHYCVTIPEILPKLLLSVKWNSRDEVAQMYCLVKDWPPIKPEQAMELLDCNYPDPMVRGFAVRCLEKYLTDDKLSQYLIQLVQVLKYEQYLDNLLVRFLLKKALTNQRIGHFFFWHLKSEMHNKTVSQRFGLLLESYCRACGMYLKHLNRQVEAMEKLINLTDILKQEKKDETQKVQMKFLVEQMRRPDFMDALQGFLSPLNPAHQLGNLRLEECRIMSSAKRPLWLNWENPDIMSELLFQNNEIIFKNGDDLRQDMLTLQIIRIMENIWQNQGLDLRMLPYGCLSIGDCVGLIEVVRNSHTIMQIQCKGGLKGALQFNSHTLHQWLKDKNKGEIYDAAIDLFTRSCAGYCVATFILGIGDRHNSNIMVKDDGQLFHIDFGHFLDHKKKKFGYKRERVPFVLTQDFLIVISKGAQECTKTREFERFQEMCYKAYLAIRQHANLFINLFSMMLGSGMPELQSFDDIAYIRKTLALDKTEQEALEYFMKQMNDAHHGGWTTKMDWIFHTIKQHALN

[12] = biological target: Cyclin-dependent kinase 11A (Homo sapiens) (UniProt Q9UQ88); settings: Compound concentration 1000.0 nM
[13] = biological target: Calcium/calmodulin-dependent protein kinase type 1 (Homo sapiens) (UniProt Q14012); settings: Compound concentration 1000.0 nM
[14] = biological target: Serine/threonine-protein kinase N1 (Homo sapiens) (UniProt Q16512); settings: Compound concentration 1000.0 nM
Sequence of Serine/threonine-protein kinase N1 (Homo sapiens) (Q16512 2-942 limits assumed): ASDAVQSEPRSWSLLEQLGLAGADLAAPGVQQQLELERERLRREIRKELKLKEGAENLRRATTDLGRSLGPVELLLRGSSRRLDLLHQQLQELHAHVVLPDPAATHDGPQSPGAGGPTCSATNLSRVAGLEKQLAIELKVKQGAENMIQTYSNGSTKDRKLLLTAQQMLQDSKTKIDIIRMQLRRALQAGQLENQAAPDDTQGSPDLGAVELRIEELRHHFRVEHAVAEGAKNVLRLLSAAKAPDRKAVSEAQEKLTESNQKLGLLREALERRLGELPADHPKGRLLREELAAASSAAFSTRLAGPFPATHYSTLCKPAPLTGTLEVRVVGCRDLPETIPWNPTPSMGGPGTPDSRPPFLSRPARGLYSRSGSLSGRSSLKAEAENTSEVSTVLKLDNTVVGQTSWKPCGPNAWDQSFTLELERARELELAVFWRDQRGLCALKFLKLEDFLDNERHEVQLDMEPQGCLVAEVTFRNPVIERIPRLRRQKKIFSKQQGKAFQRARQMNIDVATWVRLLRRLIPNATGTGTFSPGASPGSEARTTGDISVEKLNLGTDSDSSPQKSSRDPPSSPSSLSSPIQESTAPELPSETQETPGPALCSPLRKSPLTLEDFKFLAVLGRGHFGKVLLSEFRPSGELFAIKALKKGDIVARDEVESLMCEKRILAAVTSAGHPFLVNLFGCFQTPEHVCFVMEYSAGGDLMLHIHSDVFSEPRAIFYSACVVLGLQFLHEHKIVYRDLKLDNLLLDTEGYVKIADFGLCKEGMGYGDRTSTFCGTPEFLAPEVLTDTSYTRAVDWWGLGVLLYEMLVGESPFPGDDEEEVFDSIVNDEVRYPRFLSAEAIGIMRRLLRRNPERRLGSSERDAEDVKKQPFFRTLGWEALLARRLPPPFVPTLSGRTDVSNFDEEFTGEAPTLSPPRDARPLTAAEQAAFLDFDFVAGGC

[15] = biological target: cAMP-dependent protein kinase catalytic subunit beta (Homo sapiens) (UniProt P22694); settings: Compound concentration 1000.0 nM
[16] = system: Phosphatidylinositol 4,5-bisphosphate 3-kinase catalytic subunit alpha isoform (Homo sapiens), P42336 [H1047L]; settings: Compound concentration 1000.0 nM
Sequence of Phosphatidylinositol 4,5-bisphosphate 3-kinase catalytic subunit alpha isoform (Homo sapiens), P42336 [H1047L] (P42336 whole entry H1047L, canonical isoform): as the sequence (P42336 whole entry E545A, canonical isoform) above, with A545E, H1047L counted along it

[17] = biological target: Dual serine/threonine and tyrosine protein kinase (Homo sapiens) (UniProt Q6XUX3); settings: Compound concentration 1000.0 nM
[18] = biological target: Activin receptor type-2A (Homo sapiens) (UniProt P27037); settings: Compound concentration 1000.0 nM
[19] = biological target: T1, 5-hydroxytryptamine receptor 1A (Homo sapiens) (UniProt P08908); settings: Compound concentration 10.0 uM
T1 sequence (whole entry): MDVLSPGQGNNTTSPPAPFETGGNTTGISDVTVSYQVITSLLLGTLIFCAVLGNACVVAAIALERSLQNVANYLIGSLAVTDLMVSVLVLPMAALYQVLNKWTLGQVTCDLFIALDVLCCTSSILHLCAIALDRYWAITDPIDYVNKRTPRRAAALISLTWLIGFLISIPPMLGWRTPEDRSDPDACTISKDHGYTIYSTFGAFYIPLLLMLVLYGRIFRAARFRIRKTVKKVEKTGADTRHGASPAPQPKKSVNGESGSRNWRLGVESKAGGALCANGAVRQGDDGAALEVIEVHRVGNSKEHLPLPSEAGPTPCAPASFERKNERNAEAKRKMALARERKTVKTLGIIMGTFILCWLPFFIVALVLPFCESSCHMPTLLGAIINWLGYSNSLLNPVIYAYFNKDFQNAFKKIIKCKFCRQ

[20] = biological target: Transient receptor potential cation channel subfamily M member 6 (Homo sapiens) (UniProt Q9BX84); settings: Compound concentration 1000.0 nM
[21] = system: Tyrosine-protein kinase ABL1 (Homo sapiens), P00519 [F317I]; settings: Compound concentration 1000.0 nM
[22] = biological target: Calcium/calmodulin-dependent protein kinase type 1B (Homo sapiens) (UniProt Q6P2M8); settings: Compound concentration 1000.0 nM
Sequence of Calcium/calmodulin-dependent protein kinase type 1B (Homo sapiens) (Q6P2M8 whole entry): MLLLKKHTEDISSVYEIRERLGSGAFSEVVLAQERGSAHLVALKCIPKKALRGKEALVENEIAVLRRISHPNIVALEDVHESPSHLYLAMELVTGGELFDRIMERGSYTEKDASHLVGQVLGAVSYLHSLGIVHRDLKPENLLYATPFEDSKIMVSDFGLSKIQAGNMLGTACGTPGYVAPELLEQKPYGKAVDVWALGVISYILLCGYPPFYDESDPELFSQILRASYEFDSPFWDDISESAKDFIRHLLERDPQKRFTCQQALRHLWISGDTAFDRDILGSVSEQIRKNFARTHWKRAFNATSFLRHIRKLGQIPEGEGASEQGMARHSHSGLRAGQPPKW

[23] = biological target: Serine/threonine-protein kinase ICK (Homo sapiens) (UniProt Q9UPZ9); settings: Compound concentration 1000.0 nM
Sequence of Serine/threonine-protein kinase ICK (Homo sapiens) (Q9UPZ9 whole entry): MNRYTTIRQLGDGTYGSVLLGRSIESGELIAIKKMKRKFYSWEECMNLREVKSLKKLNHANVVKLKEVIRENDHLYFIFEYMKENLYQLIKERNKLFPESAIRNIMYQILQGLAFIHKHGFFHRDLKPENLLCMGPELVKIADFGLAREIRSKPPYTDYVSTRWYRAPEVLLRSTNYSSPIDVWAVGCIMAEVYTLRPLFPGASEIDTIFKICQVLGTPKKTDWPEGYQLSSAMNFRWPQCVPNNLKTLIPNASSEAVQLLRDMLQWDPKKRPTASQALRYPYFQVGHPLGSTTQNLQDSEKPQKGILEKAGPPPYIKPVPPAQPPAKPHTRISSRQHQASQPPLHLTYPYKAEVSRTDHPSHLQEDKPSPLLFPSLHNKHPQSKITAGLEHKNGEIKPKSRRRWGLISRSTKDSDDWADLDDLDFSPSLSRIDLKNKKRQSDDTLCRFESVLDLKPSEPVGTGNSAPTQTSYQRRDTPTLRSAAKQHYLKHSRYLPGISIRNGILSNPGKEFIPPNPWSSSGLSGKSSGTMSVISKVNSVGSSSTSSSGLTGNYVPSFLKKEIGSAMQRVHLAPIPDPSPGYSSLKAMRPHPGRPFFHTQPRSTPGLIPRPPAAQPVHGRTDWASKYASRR

[24] = biological target: Serine/threonine-protein kinase 32B (Homo sapiens) (UniProt Q9NY57); settings: Compound concentration 1000.0 nM
Sequence of Serine/threonine-protein kinase 32B (Homo sapiens) (Q9NY57 whole entry): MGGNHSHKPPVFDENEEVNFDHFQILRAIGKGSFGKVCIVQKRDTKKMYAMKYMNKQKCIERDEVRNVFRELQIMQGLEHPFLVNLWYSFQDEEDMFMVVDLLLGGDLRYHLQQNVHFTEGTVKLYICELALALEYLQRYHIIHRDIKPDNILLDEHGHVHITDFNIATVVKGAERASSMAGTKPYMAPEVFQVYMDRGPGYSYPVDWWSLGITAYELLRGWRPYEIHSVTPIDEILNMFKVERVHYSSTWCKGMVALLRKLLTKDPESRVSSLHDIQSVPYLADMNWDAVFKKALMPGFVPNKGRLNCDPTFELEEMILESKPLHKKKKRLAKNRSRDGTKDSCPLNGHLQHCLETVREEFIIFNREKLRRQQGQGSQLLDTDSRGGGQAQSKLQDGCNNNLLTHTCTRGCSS

[25] = biological target: Mitotic checkpoint serine/threonine-protein kinase BUB1 (Homo sapiens) (UniProt O43683); settings: Compound concentration 1000.0 nM
[26] = biological target: Serine/threonine-protein kinase RIO1 (Homo sapiens) (UniProt Q9BRS2); settings: Compound concentration 1000.0 nM
Sequence of Serine/threonine-protein kinase RIO1 (Homo sapiens) (Q9BRS2 whole entry): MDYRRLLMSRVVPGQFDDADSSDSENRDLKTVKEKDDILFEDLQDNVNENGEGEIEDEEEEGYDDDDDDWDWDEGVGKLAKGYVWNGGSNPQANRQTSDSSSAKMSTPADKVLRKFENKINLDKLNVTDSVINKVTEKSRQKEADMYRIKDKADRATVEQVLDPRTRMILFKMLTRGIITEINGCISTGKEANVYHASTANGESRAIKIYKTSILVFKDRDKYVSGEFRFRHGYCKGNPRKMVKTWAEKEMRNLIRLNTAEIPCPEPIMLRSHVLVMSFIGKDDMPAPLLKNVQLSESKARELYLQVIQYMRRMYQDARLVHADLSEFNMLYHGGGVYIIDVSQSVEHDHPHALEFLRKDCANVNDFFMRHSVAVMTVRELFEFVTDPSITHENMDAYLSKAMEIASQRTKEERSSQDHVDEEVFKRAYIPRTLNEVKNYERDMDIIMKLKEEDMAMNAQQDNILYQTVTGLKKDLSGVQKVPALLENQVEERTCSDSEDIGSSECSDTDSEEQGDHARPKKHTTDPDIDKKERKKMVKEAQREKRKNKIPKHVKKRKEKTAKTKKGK

[27] = system: Mast/stem cell growth factor receptor Kit (Homo sapiens), P10721 [L576P]; settings: Compound concentration 1000.0 nM
[28] = biological target: Insulin receptor-related protein (Homo sapiens) (UniProt P14616); settings: Compound concentration 1000.0 nM
[29] = biological target: Dual specificity tyrosine-phosphorylation-regulated kinase 1A (Homo sapiens) (UniProt Q13627); settings: Compound concentration 1000.0 nM
[30] = biological target: Mitogen-activated protein kinase kinase kinase kinase 5 (Homo sapiens) (UniProt Q9Y4K4); settings: Compound concentration 1000.0 nM
[31] = biological target: Interleukin-1 receptor-associated kinase 3 (Homo sapiens) (UniProt Q9Y616); settings: Compound concentration 1000.0 nM
[32] = biological target: Receptor-interacting serine/threonine-protein kinase 2 (Homo sapiens) (UniProt O43353); settings: Compound concentration 1000.0 nM
[33] = system: Epidermal growth factor receptor (Homo sapiens), P00533 [G719C]; settings: Compound concentration 1000.0 nM
[34] = biological target: Macrophage colony-stimulating factor 1 receptor (Homo sapiens) (UniProt P07333); settings: Compound concentration 1000.0 nM
[35] = biological target: Aurora kinase A (Homo sapiens) (UniProt O14965); settings: Compound concentration 1000.0 nM
[36] = biological target: Ribosomal protein S6 kinase alpha-3 (Homo sapiens) (UniProt P51812); settings: Compound concentration 1000.0 nM
[37] = biological target: Mitogen-activated protein kinase 11 (Homo sapiens) (UniProt Q15759); settings: Compound concentration 1000.0 nM
[38] = biological target: Vascular endothelial growth factor receptor 1 (Homo sapiens) (UniProt P17948); settings: Compound concentration 1000.0 nM
[39] = biological target: Tyrosine-protein kinase Lyn (Homo sapiens) (UniProt P07948); settings: Compound concentration 1000.0 nM

Row | Structure (SMILES) | residual activity [1] | residual activity [2] | residual activity [3] | residual activity [4] | residual activity [5] | residual activity [6] | residual activity [7] | residual activity [8] | residual activity [9] | residual activity [10] | residual activity [11] | residual activity [12] | residual activity [13] | residual activity [14] | residual activity [15] | residual activity [16] | residual activity [17] | residual activity [18] | inhibition [19] | residual activity [20] | also measured
1 | O=C(O)[C@H]1[C@H](Cn2nnc3ccccc3c2=O)CC[C@@H]1C(=O)c1ccc(OCCC2CCOCC2)cc1 [BAY-7598] | 64% | 76% | 73% | 79% | 85% | 86% | 78% | 100% | 80% | 100% | 100% | 92% | 100% | 88% | 95% | 71% | 100% | 87% | -0.18% | 100% | residual activity [21]: 86%; residual activity [22]: 46%; residual activity [23]: 98%; residual activity [24]: 100%; residual activity [25]: 85%; residual activity [26]: 100%; residual activity [27]: 96%; residual activity [28]: 81%; residual activity [29]: 85%; residual activity [30]: 92%; residual activity [31]: 77%; residual activity [32]: 100%; residual activity [33]: 81%; residual activity [34]: 100%; residual activity [35]: 97%; residual activity [36]: 81%; residual activity [37]: 78%; residual activity [38]: 96%; residual activity [39]: 92%
2 | O=C(O)[C@@H]1[C@@H](Cn2nnc3ccccc3c2=O)CC[C@H]1C(=O)c1ccc(OCCC2CCOCC2)cc1 [BAY-694] | 76% | 94% | 73% | 100% | 89% | 100% | 100% | 100% | 100% | 94% | 100% | 91% | 92% | 97% | 100% | 84% | 84% | 100% | 7.62% | 96% | residual activity [21]: 82%; residual activity [22]: 67%; residual activity [23]: 97%; residual activity [24]: 100%; residual activity [25]: 73%; residual activity [26]: 100%; residual activity [27]: 100%; residual activity [28]: 100%; residual activity [29]: 94%; residual activity [30]: 100%; residual activity [31]: 100%; residual activity [32]: 97%; residual activity [33]: 90%; residual activity [34]: 94%; residual activity [35]: 100%; residual activity [36]: 100%; residual activity [37]: 99%; residual activity [38]: 100%; residual activity [39]: 97%
